Measurements: patent publication US12178805B2, “Inhibitors of PDE6Delta for use in the prevention and/or treatment of epilepsy and/or neurodegenerative disorders” (ReMYND N.V., priority 2017, dated 2024)

Key:
[1] = system: VGCC activity in primary neurons; assay: KCl-induced Ca2+ influx (VGCC activity) in primary neurons; format: cell-based, mouse; details: for inhibition at 10 µM: Mus musculus, Primary neuron, relative to vehicle treated neurons, KCl depolarisation, read-out: % inhibition of cytosolic Ca^2+ influx
Experimental: Examplary compound 6 was tested for its ability to inhibit VGCC activity in primary neurons. Neurons from mouse embryos were harvested and cultured using standard methods (such as used in Schlager et al., 2014. Cell reports, 8(5), pp. 1248-56). To stimulate VGCC activity, neurons were depolarized using 45 mM KCl and incubated with vehicle or 1.5 μM of compound. Calcium influx was measured using fluorescent cytosolic Ca^2+ detection reagent Fura2.
Changes in cytosolic Ca^2+ concentrations were measured after loading the cells with Fura-2 AM (Sigma-Aldrich), a cell permeable fluorescent probe for Ca^2+. Briefly, Fura-2-AM was dissolved in DMSO plus 20% Pluronic Acid (F-127) (Invitrogen) in a 1:1 ratio and diluted in medium to a final concentration of 0.5 μM. Probenecid (Sigma-Aldrich) was added to this loading medium at a final concentration of 2.5 mM. Then, culture medium was replaced by loading medium and after incubation for 1 hour at 37° C. cells were washed twice and replaced with HBSS (Gibco) supplemented with 0.2% FBS and 0.02M HEPES. Next, changes in cytosolic calcium were measured using a FlexStation 3 microplate reader (Molecular Devices) and quantified ratiometric, by calculating changes in the amount of cytosolic Ca^2+ bound Fura-2 (fluorescence intensity at 340 nm) relative to the amount of Ca^2+ unbound Fura-2 (fluorescence intensity at 380 nm). Data was processed in SoftMax Pro 5.4.6 software (Molecular Devices).
Compounds 1-7 were tested at 10 μM for their ability to inhibit Ca^2+ influx in primary neurons (FIG. 5) as described in Example 21 (Table 5). Primary neurons treated with vehicle in which no compound was dissolved was used as a no-effect control. The percentage (%) inhibition of Ca^2+ influx relative to vehicle treated neurons was calculated.

[2] = system: M17-TAU P301L cells; assay: TAU-toxicity model, LDH leakage of retinoic acid incubated M17-TAU P301L cells; format: cell-based, human; details: non-silenced cells
From the text: A TAU expression plasmid was constructed by sub-cloning the cDNA of human TAU-P301L (encoding for TAU with proline 301 substituted by a leucine residue) into mammalian expression vector pcDNA3.1 resulting in plasmid pcDNA3.1-TAU P301L. Plasmids pcDNA3.1 and pcDNA3.1-TAU P301L were transfected to human neuroblastoma cells ([…]; ATCC No. CRL-2267) and independent clonal lines with the plasmids stably integrated into the genome were selected. […] Expression of the TAU P301L genes in the cell lines was confirmed by Western analysis.
In degenerated or dead cells lactate dehydrogenase (LDH) leaks out of the cells into the extracellular environment due to a loss of plasma-membrane integrity. This principle was used to determine cytotoxicity by quantifying the level of leaked LDH into the growth medium relative to the sum of total LDH activity from living cells and dead cells.
(§1) The detailed method for determining cytotoxicity was as follows: From appropriate precultures of M17-3.1 and M17-TAU(P301L) cells were seeded at 2500 cells/cm2 in Optimem Reduced Serum without phenol red (Gibco, Cat. 31985-047) supplemented with 1% fetal calf serum, 1 mM sodium pyruvate, 1× non-essential amino acids, 500 μg/ml G418 0.5×antibiotic/antimycotic. After 3 hours of incubation at 37° C./5% CO2 1 volume of Optimem Reduced Serum (same as described above; except without fetal calf serum) supplemented with 2.5 μM all-trans retinoic acid (ATRA) was added. The cells were further incubated for 7 days. Subsequently, LDH activity was determined using Promega Cytotox 96 Non-Radioactive cytotoxicity assay, (Cat. G1780) according the supplier's instructions.
The M17-TAU P301L cell line made it possible to assess the ability of novel compounds to inhibit PDE6δ and counteract TAU cytotoxicity. […] These measurements were used to calculate EC50 values.

[3] = system: PDE6δ silenced cells; assay: TAU-toxicity model in PDE6δ silenced cells; format: cell-based, human; details: compared with non-silenced cells
[4] = system: primary rat hippocampal neurons; assay: ex-vivo inhibition of oligomeric amyloid beta (Aβo/ADDL) toxicity in primary neurons; format: cell-based; details: 100 ng/mL, 1000 nM ADDL, 24 h
Experimental: An exemplary compound of this invention was tested for its ability to inhibit toxicity elicited by oligomeric amyloid beta (Aβo). Neurons from rat embryos were harvested and cultured using standard methods (such as used in Schlager et al., 2014. Cell reports, 8(5), pp. 1248-56.). Differentiated neurons were challenged with Aβo and viability was quantified.
At day in-vitro 19 days after isolation primary hippocampal neurons were transfected with Marcks-GFP in order to visualize the neurons with fluorescence microscopy.
ADDL (Abeta-derived diffusible ligands) preparation (representing Aβo) was done according to Klein (Klein, 2002. Neurochemistry international, 41(5), pp. 345-52.). Abeta 1-42 was purchased from AnaSpec Inc. and dissolved in HFIP to homogenize the peptide. HFIP was then evaporated in a speedvac and Abeta film was dried at −20° C. overnight over desiccant. Abeta film was then resolubilised in 100% DMSO and further diluted (1/25) in Ham's F12 medium. Blanks were prepared by adding equal amounts of DMSO to Ham's F12 medium. Abeta and Blank solutions were incubated overnight at 4° C.
At day in-vitro 21 primary rat hippocampal neurons were treated with equal volume of Blank/ADDL solution amounting to 0 and 1000 nM ADDL. Cultures were kept at 37° C. 5% CO2 for 24 h before PFA fixation. Viability was assessed using the Live-Dead assay from Thermo Fisher Catalog number: L3224.

[5] = system: transgenic human APP mice; assay: Morris Water Maze test in transgenic APP mice; format: in vivo, mouse; details: 20 mg/kg subcutaneously, daily for 8 weeks, versus vehicle
Experimental: Transgenic human 4-month old APP mice (THE JOURNAL OF BIOLOGICAL […] Vol. 274, No. 10, Issue of March 5, pp. 6483-6492, 1999) were treated subcutaneously, daily for 8 weeks with examplary Compound 6 at 20 mg/kg (FIG. 7). Cognition was assessed using the Morris Water Maze test. […] After the learning phase a probe test was conducted in which the platform was removed from the water bath to evaluate the spatial memory of the location of the platform.
Both indices indicate that compound treated mice have improved cognitive performance almost identical to wild type controls compared to vehicle treated mice.

[6] = system: RAP1A silenced cells; assay: TAU-toxicity model in RAP1A silenced cells; format: cell-based, human; details: compared with non-silenced cells
Experimental: as §1

[7] = system: phosphorylated TAU in brain; assay: in vivo TAU phosphorylation in brain of transgenic APP*PS1 mice, Western analysis; design: species or system mouse; details: 20 mg/kg daily subcutaneously, 5-month old APP*PS1 mice, versus vehicle
Experimental: Transgenic human 5-month old APP*PS1 mice (The Journal of Neuroscience, Sep. 1, 2000, 20(17):6452-6458) were treated daily subcutaneously with 20 mg/kg Compound 6 or for two weeks with Compound A:
At the end of the treatment period, mice were sacrificed and the corresponding brains were used for biochemical analysis.

[8] = system: mouse brain slices; assay: afterhyperpolarization of single action potentials in mouse brain slices; details: slices incubated with compound versus vehicle
Experimental: A single spike was elicited by injecting a 2 ms depolarizing current pulse (35 pA) and action potential (AP) parameters were at baseline and after 25 min vehicle or compound perfusion.
Action potentials (AP) after electrical stimulation of mouse brain slices were analysed (FIG. 14).
The experiment was performed as described in Example 24.

[9] = system: CA1 pyramidal neurons in tgAPP mouse brain slices; assay: firing rate of CA1 neurons in brain slices of tgAPP mice, patch clamp; details: 2 μM, 1 hr perfusion
Experimental: Brain slices from wild type and tgAPP mice were incubated with DMSO or Compound 6. Neurons were stimulated with increasing currents and the frequency of action potentials was measured.
Acute sagittal brain slices from WT or hAPP mice were prepared by decapitation of the mice after isoflurane anaesthesia. Brains were removed quickly and immersed during 3-4 min in ice-cold freshly prepared cutting artificial cerebrospinal fluid (cutting aCSF) containing (in mM) 214 sucrose, 2.5 KCl, 2 CaCl2), 2 MgSO4, 1.25 NaH2PO2, 26 NaHCO3 and 10 glucose and oxygenated with 95% O2/5% CO2. Sagittal 350 μm slices were generated using a vibratome (VT 1000S; Leica Microsystems) and were incubated in standard carboxygenated aCSF (in mM: 125 NaCl, 2.5 KCl, 2 CaCl2), 2 MgSO4, 1.25 NaH2PO2, 26 NaHCO3 and 10 glucose, osmolarity 305 mOsm) at 34° C. during 20 min. The incubation continued at room temperature (RT) for another hour before each slice was transferred to a submerged recording chamber and perfused continuously with carboxygenated aCSF. […]
Dendritic firing rate of CA1 cells was recorded in response to hyperpolarizing and depolarizing steps (−0.4 to +0.45 nA, steps of 0.05 nA) after a 1 hr perfusion with vehicle or compound at 2 μM. […]

[10] = biological target: T1, RAP1A binding on PDE6δ (Homo sapiens, UniProt O43924); assay: PDE6δ-STREP/HA pull-down from HEK293 cells with quantitative mass spectrometry of interactors; format: cell-based; details: 1 hour incubation of 1 μM
T1 construct: expressed in transfected cells
From the text: PDE6δ together with associated proteins was precipitated from a cellular extract either in the presence or absence of Compound A:
Using mass spectrometry based techniques interacting proteins were quantitatively identified in function of compound presence (FIG. 11).
In the absence of Compound A a host of interacting proteins were identified including known interactors such as Arl3 and RPGR. […] This effect is highly specific since a non-prenylated interactor of PDE6δ such as Arl3 which bind PDE6δ via different mechanisms is not impacted.
The cDNA encoding human PDE6δ was fused with a STREP-HA tag encoding DNA sequence and expressed in HEK293 cells using a standard expression vector. The bait sequence was verified by sequencing. […] Bait expression and solubility was monitored by immunoblotting using anti-HA antibodies. […]
Affinity purification and mass spectrometrical analysis of PDE6δ-strep-HA expressed in HEK293 cells was performed with three biological replicates for label free quantitative mass spectrometrical analysis. The samples were analyzed on a Thermo LTQ Orbitrap XL spectrometer using a C18 column, ESI and a 60 min gradient. The signals' intenstity are provided as 2 Log values and correlates to the concentration of the detected mass (number/amount of peptide). […]

T1 sequence (O43924 whole entry): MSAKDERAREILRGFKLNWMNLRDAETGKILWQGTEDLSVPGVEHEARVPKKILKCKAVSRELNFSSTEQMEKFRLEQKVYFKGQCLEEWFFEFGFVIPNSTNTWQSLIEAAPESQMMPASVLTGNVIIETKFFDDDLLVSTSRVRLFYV

O=C(NCCc1c[nH]c2ccc(F)cc12)c1cc(Cc2ccc(F)cc2F)on1 [Compound 1]
inhibition at 10 µM [1]: 43%

O=C(NCCc1c[nH]c2ccc(F)cc12)c1cc(Cc2ccc(F)c(F)c2)on1 [Compound 2]
inhibition at 10 µM [1]: 48%

O=C(NCCc1c[nH]c2ccc(F)cc12)c1cc(Cc2cc(F)cc(F)c2)on1 [Compound 3]
inhibition at 10 µM [1]: 42%

O=C(NCCc1c[nH]c2ccc(F)cc12)c1cc(Cc2ccc(F)cc2)on1 [Compound 4]
inhibition at 10 µM [1]: 39%

O=C(NCCc1c[nH]c2ccc(F)cc12)c1cc(Cc2cccc(F)c2F)on1 [Compound 5]
inhibition at 10 µM [1]: 42%

O=C(NCCc1c[nH]c2ccc(F)cc12)c1cc(Cc2cc(F)ccc2F)on1 [Compound 6]
effect on TAU-induced toxicity [2]: reduced toxicity
effect of the compound on lowering toxicity in PDE6δ silenced cells [3]: strongly reduced
neuronal viability in Aβo treated neurons [4]: strongly rescued
Ca^2+ influx upon KCl depolarisation ([1]; 1.5 μM, 45 mM KCl): significantly reduced
inhibition at 10 µM [1]: 43%
annulus crossing index in probe test [5]: higher annulus crossing index score
search path during training phase [5]: reduced search path
compound effect on reducing neurotoxicity in RAP1A silenced cells [6]: strongly reduced
TAU phosphorylation in brain extracts [7]: effectively reduced TAU phosphorylation
afterhyperpolarization of action potentials [8]: increased
frequency of action potentials at high stimulation [9]: significantly lowered the frequency towards wild type level

O=C(NCCc1c[nH]c2ccc(F)cc12)c1cc(Cc2ccccc2F)on1 [Compound 7]
inhibition at 10 µM [1]: 56%

O=C(NCCc1c[nH]c2ccc(Cl)cc12)c1cc(Cc2cc(F)ccc2F)on1 [Compound A]
interaction of Arl3 (non-prenylated interactor) with PDE6δ [10]: not impacted
interaction of RAP1A with PDE6δ [10]: specifically reduced

c1ccc(Cn2c(-c3ccc(OC[C@H](C4CCNCC4)n4c(-c5ccccc5)nc5ccccc54)cc3)nc3ccccc32)cc1 [Deltarasin, reference compound]
effect on TAU-induced toxicity [2]: lowered toxicity
effect of the compound on lowering toxicity in PDE6δ silenced cells [3]: strongly reduced

COC(=O)C1=C(C)NC(C)=C(C(=O)OC(C)C)C1c1cccc2nonc12 (stereo not shown) [isradepine]
effect on TAU-induced toxicity [2]: lowered toxicity
